Data set [1] concerns HCV replicon with a R155K mutation in a 1a-H77 background. In words: transient replicon assay, R155K mutation in 1a-H77 background. The note with it: Hepatitis C virus, read-out: EC50 in a transient replicon assay with a R155K mutation in a 1a-H77 background. In kind it is cell-based, hepatitis C virus (genotype 1a-H77). The method, boiled down: (§1)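 Transient transfection of mutant replicon RNA (1a-H77 with NS2–NS5B, or 1b-N with NS3–NS5B plus E1202G/S2204I) by electroporation into IFN-cured Huh7 cells, plated at 7.5×10^3 cells per well in DMEM with 5% FBS. Serial compound dilutions added 4 h post-transfection (0.5% DMSO final).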

Data set [2] relates to HCV replicon with a D168V mutation in a 1a-H77 background. In words: transient replicon assay, D168V mutation in 1a-H77 background. In kind it is cell-based, hepatitis C virus (genotype 1a-H77). The note with it: Hepatitis C virus, read-out: EC50 in a transient replicon assay with a D168V mutation in a 1a-H77 background. The method, boiled down:
as §1

The next data set is described as follows: dog PK experiment. As to conditions: in vivo; for bioavailability: dog PK experiment, 3 mg/kg, read-out: F value (bioavailability); for AUC: dog, dosed at 3 mg/kg. The text has this:
Those of ordinary skill in the art are aware of the biological assays utililized to test the compounds of the invention. Regarding bioavailability data (F values), a more thorough explanation can be found in Rowland, M and Tozer, T Clinical Pharmacokinetics: Concepts and Applications Lippincott, Williams & Wilkins 3rd ed. 1995, (specifically covered on page 43).

The subject of data set [3] is HCV replicon with a D168E mutation in a 1a-H77 background. Kind of data set: transient replicon assay, D168E mutation in 1a-H77 background. In kind it is cell-based, hepatitis C virus (genotype 1a-H77). As to conditions: Hepatitis C virus, read-out: EC50 in a transient replicon assay with a D168E mutation in a 1a-H77 background. The method, boiled down:
as §1

SMILES strings stand for the structures.

With `Cc1cc(C(=O)N[C@H]2CCCCC/C=C\[C@@H]3C[C@@]3(C(=O)NS(=O)(=O)C3(C)CC3)NC(=O)[C@@H]3C[C@@H](Oc4nc5cc(F)ccc5nc4C(F)(F)F)CN3C2=O)no1` [Example 111, N-((2R,6S,13aS,14aR,16aS,Z)-2-(7-fluoro-3-(trifluoromethyl)quinoxalin-2-yloxy)-14a-(1-methylcyclopropylsulfonylcarbamoyl)-5,16-dioxo-1,2,3,5,6,7,8,9,10,11,13a,14,14a,15,16,16a-hexadecahydrocyclopropa[e]pyrrolo[1,2-a][1,4]diazacyclopentadecin-6-yl)-5-methylisoxazole-3-carboxamide], the EC50 in data set [1] is below 1 nM; in data set [2] it was below 25 nM; in data set [3] it was below 3 nM. Also, in “dog PK experiment”, the bioavailability worked out at 88%. For the same molecule, the AUC in “dog PK experiment” was 141000 ng·h/mL.
For `Cc1cc(C(=O)N[C@H]2CCCCC/C=C\[C@@H]3C[C@@]3(C(=O)NS(=O)(=O)C3(C)CC3)NC(=O)[C@@H]3C[C@@H](Oc4nc5cc(F)cc(Br)c5nc4C)CN3C2=O)no1` [Example 101, N-((2R,6S,13aS,14aR,16aS,Z)-2-(5-bromo-7-fluoro-3-methylquinoxalin-2-yloxy)-14a-(1-methylcyclopropylsulfonylcarbamoyl)-5,16-dioxo-1,2,3,5,6,7,8,9,10,11,13a,14,14a,15,16,16a-hexadecahydrocyclopropa[e]pyrrolo[1,2-a][1,4]diazacyclopentadecin-6-yl)-5-methylisoxazole-3-carboxamide] the same measures were below 1 nM, below 25 nM, 3 to 20 nM, above 100% and 84000 ng·h/mL.
Consider `Cc1onc(C(=O)N[C@H]2CCCCC/C=C\[C@@H]3C[C@@]3(C(=O)NS(=O)(=O)C3CC3)NC(=O)[C@@H]3C[C@@H](Oc4nc5ccccc5nc4C(F)(F)F)CN3C2=O)c1C` [Example 16, N-((2R,6S,13aS,14aR,16aS,Z)-14a-(cyclopropylsulfonylcarbamoyl)-5,16-dioxo-2-(3-(trifluoromethyl)quinoxalin-2-yloxy)-1,2,3,5,6,7,8,9,10,11,13a,14,14a,15,16,16-hexadecahydrocyclopropa[e]pyrrolo[1,2-a][1,4]diazacyclopentadecin-6-yl)-4,5-dimethylisoxazole-3-carboxamide], for which the EC50 in data set [1] is below 1 nM; in data set [2], below 25 nM; in data set [3] it was below 3 nM. The bioavailability in “dog PK experiment” was found to be 66%. For the same molecule, in the data set “dog PK experiment”, the AUC came out at 2100 ng·h/mL.
On to `Cc1cc(C(=O)N[C@H]2CCCCC/C=C\[C@@H]3C[C@@]3(C(=O)NS(=O)(=O)C3CC3)NC(=O)[C@@H]3C[C@@H](Oc4nc5c(F)cccc5nc4C)CN3C2=O)no1` [Example 56, N-((2R,6S,13aS,14aR,16aS,Z)-14a-(cyclopropylsulfonylcarbamoyl)-2-(8-fluoro-3-methylquinoxalin-2-yloxy)-5,16-dioxo-1,2,3,5,6,7,8,9,10,11,13a,14,14a,15,16,16a-hexadecahydrocyclopropa[e]pyrrolo[1,2-a][1,4]diazacyclopentadecin-6-yl)-5-methylisoxazole-3-carboxamide], for which the figures for the EC50 in data set [1], in data set [2] and in data set [3] were 1 to 10 nM, 50 to 250 nM and 20 to 50 nM, respectively. The bioavailability in “dog PK experiment” was above 100%. The molecule further yielded an AUC in the data set “dog PK experiment” of 10800 ng·h/mL.
Turning to `Cc1cc(C(=O)N[C@H]2CCCCC/C=C\[C@@H]3C[C@@]3(C(=O)NS(=O)(=O)C3CC3)NC(=O)[C@@H]3C[C@@H](Oc4nc5cc(F)ccc5nc4C)CN3C2=O)no1` [Example 22, N-((2R,6S,13aS,14aR,16aS,Z)-14a-(cyclopropylsulfonylcarbamoyl)-2-(7-fluoro-3-methylquinoxalin-2-yloxy)-5,16-dioxo-1,2,3,5,6,7,8,9,10,11,13a,14,14a,15,16,16a-hexadecahydrocyclopropa[e]pyrrolo[1,2-a][1,4]diazacyclopentadecin-6-yl)-5-methylisoxazole-3-carboxamide], the figures for the EC50 in data set [1], in data set [2] and in data set [3] were 1 to 10 nM, 25 to 50 nM and 3 to 20 nM, respectively. Besides, the bioavailability in “dog PK experiment” was above 100%. In the data set “dog PK experiment”, this molecule returned an AUC of 54000 ng·h/mL.
Consider `Cc1cc(C(=O)N[C@H]2CCCCC/C=C\[C@@H]3C[C@@]3(C(=O)NS(=O)(=O)C3CC3)NC(=O)[C@@H]3C[C@@H](Oc4nc5cc(F)ccc5nc4C(F)(F)F)CN3C2=O)no1` [Example 107, N-((2R,6S,13aS,14aR,16aS,Z)-14a-(cyclopropylsulfonylcarbamoyl)-2-(7-fluoro-3-(trifluoromethyl)quinoxalin-2-yloxy)-5,16-dioxo-1,2,3,5,6,7,8,9,10,11,13a,14,14a,15,16,16a-hexadecahydrocyclopropa[e]pyrrolo[1,2-a][1,4]diazacyclopentadecin-6-yl)-5-methylisoxazole-3-carboxamide], for which the figures for the EC50 in data set [1], in data set [2] and in data set [3] were below 1 nM, below 25 nM and below 3 nM, respectively. The bioavailability in the data set “dog PK experiment” came to 74%. The molecule further displayed an AUC in the data set “dog PK experiment” of 54000 ng·h/mL.
On to `O=C(N[C@H]1CCCCC/C=C\[C@@H]2C[C@@]2(C(=O)NS(=O)(=O)C2CC2)NC(=O)[C@@H]2C[C@@H](Oc3nc4ccccc4nc3C(F)(F)F)CN2C1=O)c1ccon1` [Example 15, N-((2R,6S,13aS,14aR,16aS,Z)-14a-(cyclopropylsulfonylcarbamoyl)-5,16-dioxo-2-(3-(trifluoromethyl)quinoxalin-2-yloxy)-1,2,3,5,6,7,8,9,10,11,13a,14,14a,15,16,16a-hexadecahydrocyclopropa[e]pyrrolo[1,2-a][1,4]diazacyclopentadecin-6-yl)isoxazole-3-carboxamide], for which, in “dog PK experiment”, the bioavailability is above 100% and the AUC was found to be 3300 ng·h/mL.
On to `Cc1cc(C(=O)N[C@H]2CCCCC/C=C\[C@@H]3C[C@@]3(C(=O)NS(=O)(=O)C3CC3)NC(=O)[C@@H]3C[C@@H](Oc4nc5ccccc5nc4C(F)(F)F)CN3C2=O)no1` [Example 10, N-((2R,6S,13aS,14aR,16aS,Z)-14a-(cyclopropylsulfonylcarbamoyl)-5,16-dioxo-2-(3-(trifluoromethyl)quinoxalin-2-yloxy)-1,2,3,5,6,7,8,9,10,11,13a,14,14a,15,16,16a-hexadecahydrocyclopropa[e]pyrrolo[1,2-a][1,4]diazacyclopentadecin-6-yl)-5-methylisoxazole-3-carboxamide], for which the half-maximal effective concentration (EC50) was below 1 nM in data set [1], 25 to 50 nM in data set [2] and below 3 nM in data set [3]. For the same molecule, the bioavailability in the data set “dog PK experiment” was above 100%. Further, in the data set “dog PK experiment”, the AUC was 27000 ng·h/mL.
Consider `Cc1cc(C(=O)N[C@H]2CCCCC/C=C\[C@@H]3C[C@@]3(C(=O)NS(=O)(=O)C3(C)CC3)NC(=O)[C@@H]3C[C@@H](Oc4nc5cc(F)ccc5nc4C(C)(F)F)CN3C2=O)no1` [Example 119, N-((2R,6S,13aS,14aR,16aS,Z)-2-(3-(1,1-difluoroethyl)-7-fluoroquinoxalin-2-yloxy)-14a-(1-methylcyclopropylsulfonylcarbamoyl)-5,16-dioxo-1,2,3,5,6,7,8,9,10,11,13a,14,14a,15,16,16a-hexadecahydrocyclopropa[e]pyrrolo[1,2-a][1,4]diazacyclopentadecin-6-yl)-5-methylisoxazole-3-carboxamide], for which the EC50 was below 1 nM in data set [1], below 25 nM in data set [2] and below 3 nM in data set [3]. The bioavailability in the data set “dog PK experiment” came out at 64%. Besides, the AUC in the data set “dog PK experiment” is 30000 ng·h/mL.
Take `Cc1nc2cccc(F)c2nc1O[C@@H]1C[C@H]2C(=O)N[C@]3(C(=O)NS(=O)(=O)C4CC4)C[C@H]3/C=C\CCCCC[C@H](NC(=O)OC(C)(C)C)C(=O)N2C1` [Example 54, tert-butyl (2R,6S,13aS,14aR,16aS,Z)-14a-(cyclopropylsulfonylcarbamoyl)-2-(8-fluoro-3-methylquinoxalin-2-yloxy)-5,16-dioxo-1,2,3,5,6,7,8,9,10,11,13a,14,14a,15,16,16a-hexadecahydrocyclopropa[e]pyrrolo[1,2-a][1,4]diazacyclopentadecin-6-ylcarbamate]: the EC50 in data set [1] was in the range of 1 to 10 nM; in data set [2], 50 to 250 nM; in data set [3], 20 to 50 nM.
Regarding `CCc1nc2cccc(F)c2nc1O[C@@H]1C[C@H]2C(=O)N[C@]3(C(=O)NS(=O)(=O)C4CC4)C[C@H]3/C=C\CCCCC[C@H](NC(=O)c3noc(C)c3C)C(=O)N2C1` [Example 163, N-((2R,6S,13aS,14aR,16aS,Z)-14a-(cyclopropylsulfonylcarbamoyl)-2-(3-ethyl-8-fluoroquinoxalin-2-yloxy)-5,16-dioxo-1,2,3,5,6,7,8,9,10,11,13a,14,14a,15,16,16a-hexadecahydrocyclopropa[e]pyrrolo[1,2-a][1,4]diazacyclopentadecin-6-yl)-4,5-dimethylisoxazole isoxazole-3-carboxamide], the half-maximal effective concentration (EC50) was below 1 nM in data set [1], 25 to 50 nM in data set [2] and below 3 nM in data set [3].
For `CCc1nc2cccc(F)c2nc1O[C@@H]1C[C@H]2C(=O)N[C@]3(C(=O)NS(=O)(=O)C4CC4)C[C@H]3/C=C\CCCCC[C@H](NC(=O)OC(C)(C)C)C(=O)N2C1` [Example 160, tert-butyl (2R,6S,13aS,14aR,16aS,Z)-14a-(cyclopropylsulfonylcarbamoyl)-2-(3-ethyl-8-fluoroquinoxalin-2-yloxy)-5,16-dioxo-1,2,3,5,6,7,8,9,10,11,13a,14,14a,15,16,16a-hexadecahydrocyclopropa[e]pyrrolo[1,2-a][1,4]diazacyclopentadecin-6-ylcarbamate] the same measures were 1 to 10 nM, 50 to 250 nM and 20 to 50 nM.
